Common to all, as to type: biochemical
Assay [1] has as its target T1, recombinant human DAO (diamine oxidase) (Homo sapiens, UniProt P19801).
T1 construct: purchased R&D systems
T1 sequence (P19801 20-751): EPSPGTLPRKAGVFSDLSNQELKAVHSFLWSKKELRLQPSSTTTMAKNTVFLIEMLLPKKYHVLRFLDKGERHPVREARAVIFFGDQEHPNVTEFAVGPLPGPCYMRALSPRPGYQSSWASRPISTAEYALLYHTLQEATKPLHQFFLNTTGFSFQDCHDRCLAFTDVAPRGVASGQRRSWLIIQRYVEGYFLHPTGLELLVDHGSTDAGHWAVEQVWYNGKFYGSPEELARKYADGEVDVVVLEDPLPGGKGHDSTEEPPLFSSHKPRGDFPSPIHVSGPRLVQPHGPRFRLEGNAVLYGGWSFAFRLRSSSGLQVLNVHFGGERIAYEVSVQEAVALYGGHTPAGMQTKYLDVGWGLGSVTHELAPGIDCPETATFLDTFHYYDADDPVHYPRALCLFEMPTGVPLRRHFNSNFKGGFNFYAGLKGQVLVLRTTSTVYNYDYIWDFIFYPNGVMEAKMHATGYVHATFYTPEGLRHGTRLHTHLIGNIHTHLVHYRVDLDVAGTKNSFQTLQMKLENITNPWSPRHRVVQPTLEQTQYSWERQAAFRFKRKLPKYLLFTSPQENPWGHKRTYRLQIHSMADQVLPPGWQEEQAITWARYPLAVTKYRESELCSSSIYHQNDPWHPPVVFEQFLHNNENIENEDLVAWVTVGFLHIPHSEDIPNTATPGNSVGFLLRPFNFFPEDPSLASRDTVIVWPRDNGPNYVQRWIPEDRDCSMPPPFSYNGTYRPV
In words: Activity evaluation on recombinant human DAO (Amplex Red/HRP-coupled assay, 1 mM putrescine substrate). Conditions: read-out: Inhibitory Activity (IC50, nM) DAO. Put shortly:
(§1)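 Enzyme activity was measured as fluorescence rate (ex 544, em 590 nm) from resorufin formed by HRP-coupled H2O2 oxidation of 200 uM Amplex Red. Compounds were first incubated 30 min at 37 °C with enzyme at pH 7.4; substrates were 0.5 mM tyramine (MAO-A), 1 mM benzylamine (MAO-B) and 1 mM putrescine (DAO).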

For assay [2], the target named is T2, recombinant human MAO-A (monoamine oxidase-A) (Homo sapiens, UniProt P21397).
T2 construct: purchased Sigma-Aldrich
T2 sequence (P21397 1-527): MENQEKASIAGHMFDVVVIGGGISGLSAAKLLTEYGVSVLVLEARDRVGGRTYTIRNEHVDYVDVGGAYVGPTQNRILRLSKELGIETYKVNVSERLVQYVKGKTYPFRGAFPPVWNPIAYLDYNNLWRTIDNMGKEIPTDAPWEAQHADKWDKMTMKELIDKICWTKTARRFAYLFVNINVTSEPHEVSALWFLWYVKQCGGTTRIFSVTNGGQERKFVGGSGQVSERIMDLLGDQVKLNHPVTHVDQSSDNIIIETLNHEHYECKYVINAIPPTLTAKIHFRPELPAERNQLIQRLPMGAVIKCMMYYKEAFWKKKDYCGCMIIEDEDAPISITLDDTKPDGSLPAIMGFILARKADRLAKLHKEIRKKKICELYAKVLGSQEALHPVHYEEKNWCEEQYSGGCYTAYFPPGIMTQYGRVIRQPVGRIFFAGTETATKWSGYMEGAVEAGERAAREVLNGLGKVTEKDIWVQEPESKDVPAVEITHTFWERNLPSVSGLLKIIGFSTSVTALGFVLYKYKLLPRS
In words: Activity evaluation on recombinant human MAO-A (Amplex Red/HRP-coupled assay, 0.5 mM tyramine substrate). The settings on record: read-out: Inhibitory Activity (IC50, nM) MAO-A. Put shortly: as §1

Another assay addresses T3, recombinant human VAP-1 (Homo sapiens, UniProt Q16853).
T3 construct: purchased R&D systems
T3 sequence (Q16853 1-763): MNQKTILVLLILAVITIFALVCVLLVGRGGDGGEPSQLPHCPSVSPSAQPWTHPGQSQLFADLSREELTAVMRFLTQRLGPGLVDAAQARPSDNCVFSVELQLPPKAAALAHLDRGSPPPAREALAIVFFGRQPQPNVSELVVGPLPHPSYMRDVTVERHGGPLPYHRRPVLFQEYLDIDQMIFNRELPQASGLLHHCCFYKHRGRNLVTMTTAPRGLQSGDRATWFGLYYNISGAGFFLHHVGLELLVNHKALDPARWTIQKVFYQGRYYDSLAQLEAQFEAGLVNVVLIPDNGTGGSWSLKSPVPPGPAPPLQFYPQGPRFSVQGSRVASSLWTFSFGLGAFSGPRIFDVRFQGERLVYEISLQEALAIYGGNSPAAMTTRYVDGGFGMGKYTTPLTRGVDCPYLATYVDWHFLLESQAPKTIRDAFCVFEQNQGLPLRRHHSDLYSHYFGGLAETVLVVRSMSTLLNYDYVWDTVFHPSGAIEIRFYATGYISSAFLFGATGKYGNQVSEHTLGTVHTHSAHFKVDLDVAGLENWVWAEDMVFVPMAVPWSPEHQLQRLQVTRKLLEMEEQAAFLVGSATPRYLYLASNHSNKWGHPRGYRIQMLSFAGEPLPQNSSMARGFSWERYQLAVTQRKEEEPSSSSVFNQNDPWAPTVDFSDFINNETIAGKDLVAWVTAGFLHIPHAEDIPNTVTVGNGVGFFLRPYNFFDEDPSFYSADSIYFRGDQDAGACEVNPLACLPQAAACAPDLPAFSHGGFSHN
As to the kind of experiment: Activity evaluation on recombinant human VAP-1 (Amplex Red/HRP-coupled hydrogen peroxide assay, benzylamine substrate). Conditions: read-out: Inhibitory Activity (IC50, nM) human VAP-1. Put shortly:
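Recombinant human VAP-1 in 50 mM sodium phosphate pH 7.4 preincubated 30 min at 37 °C with compound (8-point 1:3 series, <1% DMSO), then 1 mM benzylamine, 200 uM Amplex Red, 1 U/mL HRP added. H2O2-derived resorufin fluorescence (ex 544/em 590) followed 1–2 h; IC50 from four-parameter fit of rate inhibition.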

The target in assay [3] is T4, recombinant human MAO-B (monoamine oxidase-B) (Homo sapiens, UniProt P27338).
T4 construct: purchased Sigma-Aldrich
T4 sequence (P27338 1-520): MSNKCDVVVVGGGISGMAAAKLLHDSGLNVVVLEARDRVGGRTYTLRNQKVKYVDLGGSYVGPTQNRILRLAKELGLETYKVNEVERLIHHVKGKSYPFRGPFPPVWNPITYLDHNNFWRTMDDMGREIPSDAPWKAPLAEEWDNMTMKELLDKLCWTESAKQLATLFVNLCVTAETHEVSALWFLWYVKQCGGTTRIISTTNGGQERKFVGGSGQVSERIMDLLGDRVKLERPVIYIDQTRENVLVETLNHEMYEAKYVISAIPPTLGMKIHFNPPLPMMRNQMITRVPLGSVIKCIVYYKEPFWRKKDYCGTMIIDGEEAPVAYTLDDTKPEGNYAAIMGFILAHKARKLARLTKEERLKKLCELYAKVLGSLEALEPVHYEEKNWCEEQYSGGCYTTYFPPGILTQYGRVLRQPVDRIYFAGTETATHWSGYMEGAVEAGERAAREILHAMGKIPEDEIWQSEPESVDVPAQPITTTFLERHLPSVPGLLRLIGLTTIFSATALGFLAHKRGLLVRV
In words: Activity evaluation on recombinant human MAO-B (Amplex Red/HRP-coupled assay, 1 mM benzylamine substrate). The settings on record: read-out: Inhibitory Activity (IC50, nM) MAO-B. Put shortly: as §1

The mark [4] stands for this setting: recombinant human VAP-1, 30 min preincubation at 37° C., 1 mM benzylamine.
Setting [5] is: recombinant human VAP-1, benzylamine substrate.

The values that follow come from patent US11168073B2, “3,3-difluoroallylamines or salts thereof and pharmaceutical compositions comprising the same” (YUHAN CORPORATION, priority 2018, dated 2021).

The structures appear in SMILES notation. Counter-ions that a name gives are not always drawn. Like-named read-outs stand apart in the source and are kept apart here. Where only a bound is given, the exact number is not on record here.

As to `CCn1cc(-c2cnc(-n3cnn(CC(CN)=C(F)F)c3=O)cn2)cn1` [Example 95, 2-[2-(aminomethyl)-3,3-difluoro-allyl]-4-[5-(1-ethylpyrazol-4-yl)pyrazin-2-yl]-1,2,4-triazol-3-one Trifluoroacetate], the 50% inhibitory concentration (IC50) – broadly, the midpoint of a concentration-inhibition curve – in assay [1] (1 mM putrescine) is 19 nM; in assay [2] (0.5 mM tyramine), over 100000 nM; at recombinant human VAP-1 (setting [4]), 0.6 nM; in assay [3] (1 mM benzylamine) it was 1300 nM.
Consider `CCn1cc(-c2cc(-n3cnn(CC(CN)=C(F)F)c3=O)ccn2)cn1` [Example 67, 2-[2-(aminomethyl)-3,3-difluoro-allyl]-4-[2-(1-ethylpyrazol-4-yl)-4-pyridyl]-1,2,4-triazol-3-one Trifluoroacetate], for which the IC50 in assay [1] (1 mM putrescine) is 490 nM; in assay [2] (0.5 mM tyramine) it was over 100000 nM; at recombinant human VAP-1 (setting [4]) it was 0.9 nM; in assay [3] (1 mM benzylamine), 8300 nM.
`CN(C)c1ccc(-c2ccc(CCn3cnn(CC(CN)=C(F)F)c3=O)s2)cn1` [Example 176, 2-[2-(aminomethyl)-3,3-difluoro-allyl]-4-[2-[5-[6-(dimethylamino)-3-pyridyl]-2-thienyl]ethyl]-1,2,4-triazol-3-one Trifluoroacetate]: the IC50 in assay [1] (1 mM putrescine) is 1100 nM; in assay [2] (0.5 mM tyramine), over 100000 nM; on recombinant human VAP-1 (setting [4]) it was 0.5 nM; in assay [3] (1 mM benzylamine), over 100000 nM.
In the case of `Cc1cc(-c2ccc(CCn3cnn(CC(CN)=C(F)F)c3=O)s2)cc2c1NC(=O)CC2` [Example 178, 6-[5-[2-[1-[2-(aminomethyl)-3,3-difluoro-allyl]-5-oxo-1,2,4-triazol-4-yl]ethyl]-2-thienyl]-8-methyl-3,4-dihydro-1H-quinolin-2-one Trifluoroacetate], the IC50 was 350 nM in assay [1] (1 mM putrescine), over 100000 nM in assay [2] (0.5 mM tyramine), 0.6 nM at recombinant human VAP-1 (setting [4]) and over 100000 nM in assay [3] (1 mM benzylamine).
Consider `NCC(Cn1ncn(-c2cc(-c3ccc4c(c3)OCO4)ccn2)c1=O)=C(F)F` [Example 58, 2-[2-(aminomethyl)-3,3-difluoro-allyl]-4-[4-(1,3-benzodioxol-5-yl)-2-pyridyl]-1,2,4-triazol-3-one Trifluoroacetate], for which the concentration for half-maximal inhibition (IC50) is 1700 nM in assay [1] (1 mM putrescine), over 100000 nM in assay [2] (0.5 mM tyramine), 2.2 nM on recombinant human VAP-1 (setting [4]) and over 100000 nM in assay [3] (1 mM benzylamine).
On to `NCC(Cn1ncn(-c2ccc(-c3ccc(C(F)(F)F)nc3)nc2)c1=O)=C(F)F` [Example 40, 2-[2-(aminomethyl)-3,3-difluoro-allyl]-4-[6-[6-(trifluoromethyl)-3-pyridyl]-3-pyridyl]-1,2,4-triazol-3-one Trifluoroacetate], for which the IC50 in assay [1] (1 mM putrescine) was 12 nM; in assay [2] (0.5 mM tyramine) it was over 100000 nM; on recombinant human VAP-1 (setting [4]), 0.3 nM; in assay [3] (1 mM benzylamine), 200 nM.
Take `NCC(Cn1ncn(Cc2cc(-c3cc(F)c4[nH]c(=O)ccc4c3)cs2)c1=O)=C(F)F` [Example 189, 6-[5-[[1-[2-(aminomethyl)-3,3-difluoro-allyl]-5-oxo-1,2,4-triazol-4-yl]methyl]-3-thienyl]-8-fluoro-1H-quinolin-2-one Trifluoroacetate]: the IC50 in assay [1] (1 mM putrescine substrate) is 23000 nM; in assay [2] (0.5 mM tyramine substrate), over 100000 nM; at recombinant human VAP-1 (setting [5]), 0.5 nM; in assay [3] (1 mM benzylamine substrate), over 100000 nM.
With `Cc1cc(-c2cccc(-n3cnn(CC(CN)=C(F)F)c3=O)n2)cc2c1NC(=O)CC2` [Example 51, 6-[6-[1-[2-(aminomethyl)-3,3-difluoro-allyl]-5-oxo-1,2,4-triazol-4-yl]-2-pyridyl]-8-methyl-3,4-dihydro-1H-quinolin-2-one Trifluoroacetate], the 50% inhibitory concentration (IC50) in assay [1] (1 mM putrescine) was 520 nM; in assay [2] (0.5 mM tyramine) it was over 100000 nM; on recombinant human VAP-1 (setting [4]), 0.6 nM; in assay [3] (1 mM benzylamine), 28000 nM.
With `Cc1cc(-c2cccc(N3CCNCC3)c2)cnc1-n1cnn(CC(CN)=C(F)F)c1=O` [Example 235, 2-[2-(aminomethyl)-3,3-difluoro-allyl]-4-[3-methyl-5-(3-piperazin-1-ylphenyl)-2-pyridyl]-1,2,4-triazol-3-one Ditrifluoroacetate], the IC50 was over 100000 nM in assay [1] (1 mM putrescine substrate), over 100000 nM in assay [2] (0.5 mM tyramine substrate), 1.4 nM at recombinant human VAP-1 (setting [5]) and 840 nM in assay [3] (1 mM benzylamine substrate).
For the compound `NCC(Cn1ncn(Cc2ccc(-c3cc(F)c4c(c3)CCC(=O)N4)s2)c1=O)=C(F)F` [Example 136, 6-[5-[[1-[2-(aminomethyl)-3,3-difluoro-allyl]-5-oxo-1,2,4-triazol-4-yl]methyl]-2-thienyl]-8-fluoro-3,4-dihydro-1H-quinolin-2-one Trifluoroacetate], the IC50 was over 100000 nM in assay [1] (1 mM putrescine), over 100000 nM in assay [2] (0.5 mM tyramine), 0.4 nM at recombinant human VAP-1 (setting [4]) and over 100000 nM in assay [3] (1 mM benzylamine).
For the compound `Cc1cc(-c2cccc(-c3nc[nH]n3)c2)cnc1-n1cnn(CC(CN)=C(F)F)c1=O` [Example 239, 2-[2-(aminomethyl)-3,3-difluoro-allyl]-4-[3-methyl-5-[3-(1H-1,2,4-triazol-3-yl)phenyl]-2-pyridyl]-1,2,4-triazol-3-one trifluoroacetate], the half-inhibitory concentration (IC50) was 11000 nM in assay [1] (1 mM putrescine substrate), over 100000 nM in assay [2] (0.5 mM tyramine substrate), 2.7 nM on recombinant human VAP-1 (setting [5]) and 14000 nM in assay [3] (1 mM benzylamine substrate).
